Source: patent publication US20240116946A1 (Gilead Sciences, Inc., priority 2022, published 2024)
Like-named read-outs stand apart in the source and are kept apart here.

Legend:
SARS-CoV-2-NLuc = assay: microbe, parasite or virus in culture; type: cell-based, SARS Coronavirus 2
[1] = target: recombinant SARS-CoV-2 Main protease (Mpro) (Severe acute respiratory syndrome coronavirus 2 (2019-nCoV) (SARS-CoV-2), UniProt P0DTD1); assay: Cov Mpro Biochemical IC50 Assay
[2] = Severe acute respiratory syndrome coronavirus, 48 h; read-out: MPro EC50
[3] = recombinant SARS-CoV-2 Mpro 7.5 nM, fluorogenic peptide substrate 40 μM, read-out: MPro IC50
[4] = Severe acute respiratory syndrome coronavirus, 48 h, read-out: MPro EC50
[5] = recombinant SARS-CoV-2 Mpro, fluorogenic peptide substrate, read-out: MPro IC50

Structure (SMILES)	IC50 [1, 3] [nM]	EC50 (SARS-CoV-2-NLuc; [4]) [nM]	IC50 [1, 5] [nM]	also measured
COc1ccc(Cl)c(-c2cc3[nH]c(=O)n(-c4cncc5cc(OC)ccc45)c(=O)c3s2)c1 [Example 624, 6-(2-chloro-5-methoxyphenyl)-3-(7-methoxyisoquinolin-4-yl)thieno[3,2-d]pyrimidine-2,4(1H,3H)-dione]	88.7			EC50 (SARS-CoV-2-NLuc; [2]): 386 nM
COc1cc(-c2cc3c(s2)c(=O)n(-c2cncc(C#N)c2)c(=O)n3CCC#N)c(Cl)cc1F [Example 1040, 5-(6-(2-chloro-4-fluoro-5-methoxyphenyl)-1-(2-cyanoethyl)-2,4-dioxo-1,4-dihydrothieno[3,2-d]pyrimidin-3(2H)-yl)nicotinonitrile]	4.64			EC50 (SARS-CoV-2-NLuc; [2]): 9.66 nM
N#Cc1ccc(Cl)c(-c2ccc3c(=O)n(-c4cncc5ccccc45)c(=O)[nH]c3c2)c1 [Example 182]		90	45.1	
O=c1[nH]c2cc(-c3c(Cl)cccc3-c3ccnnc3)ccc2c(=O)n1-c1cncc2ccccc12 [Example 101, 7-(2-chloro-6-(pyridazin-4-yl)phenyl)-3-(isoquinolin-4-yl)quinazoline-2,4(1H,3H)-dione]			13.7	EC50 (SARS-CoV-2-NLuc; [2]): 73.8 nM
N#CCCn1c(=O)n(-c2cncc3ccccc23)c(=O)c2sc(-c3c(Cl)cccc3-c3cncc(C#N)c3)cc21 [Example 935]	14.3	24.6		
CN1CCN(c2ccc3cncc(-n4c(=O)[nH]c5cc(-c6ccccc6Cl)sc5c4=O)c3c2)CC1 [Example 400]	6.04	6.07		
O=c1[nH]c2cc(-c3ccccc3Cl)sc2c(=O)n1-c1cncc2ccccc12 (single isomer, unassigned) [Example 151, 6-(2-chlorophenyl)-3-(isoquinolin-4-yl)thieno[3,2-d]pyrimidine-2,4(1H,3H)-dione]			< 2.54	EC50 (SARS-CoV-2-NLuc; read-out: MPro EC50): 1.73 nM
COc1cc(-c2cc3[nH]c(=O)n(-c4cncc5ccc(C)nc45)c(=O)c3s2)c(Cl)cc1F [Example 461, 6-(2-chloro-4-fluoro-5-methoxyphenyl)-3-(2-methyl-1,6-naphthyridin-8-yl)thieno[3,2-d]pyrimidine-2,4(1H,3H)-dione]	8.07			EC50 (SARS-CoV-2-NLuc; [2]): 10 nM
COc1cc(-c2cc3c(s2)c(=O)n(-c2cncc4cnn(C5CC5)c24)c(=O)n3CCC#N)c(Cl)cc1F [Example 998]	8.93	6.42		
COc1cc(-c2cc3c(s2)c(=O)n(-c2cncc4cc(F)ccc24)c(=O)n3CCC#N)c(Cl)cc1F [Example 951]	9.45	5.38		
Cc1cc(-c2cccc(Cl)c2-c2ccc3c(=O)n(-c4cncc5ccccc45)c(=O)[nH]c3c2)cn2nnnc12 [Example 245]		20.4	13.2	
COc1cnc(Cl)c(-c2cc3c(s2)c(=O)n(-c2cncc4ccccc24)c(=O)n3CC2(C#N)CC2)c1 [Example 759]	5.39	4.85		
O=c1[nH]c2cc(-c3cc4c(cc3Cl)OC(F)(F)O4)sc2c(=O)n1-c1cncc2ccccc12 [Example 348]		8930	4760	
COc1cc(-c2cc3[nH]c(=O)n(-c4cncc5cccnc45)c(=O)c3s2)c(Cl)cc1F [Example 553, 6-(2-chloro-4-fluoro-5-methoxy-phenyl)-3-(1,6-naphthyridin-8-yl)-1H-thieno[3,2-d]pyrimidine-2,4-dione]	7.58	12		
COc1cc(-c2cc3c(s2)c(=O)n(-c2cncc4ccncc24)c(=O)n3CCC#N)c(Cl)cc1F [Example 923, 3-[6-(2-chloro-4-fluoro-5-methoxy-phenyl)-3-(2,6-naphthyridin-4-yl)-2,4-dioxo-thieno[3,2-d]pyrimidin-1-yl]propanenitrile]	4.3	2		
COc1ccc(C#N)c(-c2ccc3c(=O)n(-c4cncc5cccnc45)c(=O)[nH]c3c2)c1 [Example 218]			20.9	EC50 (SARS-CoV-2-NLuc; [2]): 82.8 nM
COc1ccc(Cl)c(-c2cc3[nH]c(=O)n(-c4cncc5ccc(N6CCOCC6)nc45)c(=O)c3s2)c1 [Example 457]	< 2.54	< 6.04		
COc1cc(-c2cc3c(s2)c(=O)n(-c2cncc(C(F)(F)F)c2)c(=O)n3CCC#N)c(Cl)cc1F [Example 869]	23.9	73		
COc1cc(-c2cc3c(s2)c(=O)n(-c2cnccc2C)c(=O)n3CCC#N)c(Cl)cc1F (single isomer, unassigned) [Example 1031, 3-[6-(2-chloro-4-fluoro-5-methoxy-phenyl)-3-(4-methyl-3-pyridyl)-2,4-dioxo-thieno[3,2-d]pyrimidin-1-yl]propanenitrile]	45.6			EC50 (SARS-CoV-2-NLuc; read-out: MPro EC50): 75.3 nM
COc1ccc(Cl)c(-c2ccc3c(=O)n(-c4cncc5ccccc45)c(=S)[nH]c3c2)c1 [Example 240]				EC50 (SARS-CoV-2-NLuc; [2]): 520 nM; IC50 ([1]; MPro IC50, recombinant SARS-CoV-2 Mpro, fluorogenic peptide substrate): 1660 nM
O=c1[nH]c2cc(-c3c(Cl)cccc3-c3ccc4nccn4c3)ccc2c(=O)n1-c1cncc2ccccc12 [Example 147]		17.1	11	
COc1cc(-c2cc3c(s2)c(=O)n(-c2cncc4cccnc24)c(=O)n3CCC#N)c(Cl)cc1F [Example 904, 3-(6-(2-chloro-4-fluoro-5-methoxyphenyl)-3-(1,6-naphthyridin-8-yl)-2,4-dioxo-3,4-dihydrothieno[3,2-d]pyrimidin-1(2H)-yl)propanenitrile]	4.29	1.34		
Cc1c(C2CCOCC2)cncc1-n1c(=O)[nH]c2cc(-c3ccccc3Cl)sc2c1=O [Example 119, 6-(2-chlorophenyl)-3-(4-methyl-5-(tetrahydro-2H-pyran-4-yl)pyridin-3-yl)thieno[3,2-d]pyrimidine-2,4(1H,3H)-dione]		2760	386	

Structure (SMILES)	IC50 [1, 3] [nM]	EC50 (SARS-CoV-2-NLuc; [4]) [nM]	IC50 [1, 5] [nM]	also measured
CC(C)Oc1ccc(Cl)c(-c2ccc3c(=O)n(-c4cncc5ccccc45)c(=O)[nH]c3c2)c1 [Example 297]		223	680	
O=c1[nH]c2cc(-c3ccccc3)c(F)cc2c(=O)n1-c1cncc2ccccc12 [Example 38]			> 100000	EC50 (SARS-CoV-2-NLuc; [2]): 4910 nM
Cc1cccc(-c2cc3[nH]c(=O)n(-c4cncc5ccccc45)c(=O)c3s2)c1Cl [Example 11]		638	4820	
CC(C)(C)c1cncc(-n2c(=O)[nH]c3cc(-c4ccccc4Cl)sc3c2=O)c1 [Example 577]	> 50000			EC50 (SARS-CoV-2-NLuc; [2]): 12100 nM
CCn1c(C)nc2cncc(-n3c(=O)c4sc(-c5cc(OC)c(F)cc5Cl)cc4n(CCC#N)c3=O)c21 [Example 940]	5.28	23.6		
N#CCCn1c(=O)n(-c2cncc3ccccc23)c(=O)c2sc(-c3cc(Cl)ccc3C#N)cc21 [Example 821]	6.75	11.5		
COc1cccc(C(N)=O)c1-c1ccc2c(=O)n(-c3cncc4ccccc34)c(=O)[nH]c2c1 [Example 72]		> 50000	8200	
COc1ccc(Cl)c(-c2ccc3c(=O)n(-c4cncc5ccc(N6CCOCC6)cc45)c(=O)[nH]c3c2)c1 [Example 430]	11.8			EC50 (SARS-CoV-2-NLuc; [2]): 18.5 nM
O=c1[nH]c2cc(-c3cc(OC(F)(F)F)ccc3Cl)sc2c(=O)n1-c1cncc2ccccc12 [Example 344]		374	110	
CC(=O)NCCn1c(=O)n(-c2cncc(C3CC3)c2)c(=O)c2sc(-c3ccccc3Cl)cc21 [Example 620]	281	759		
COc1ccc(Cl)c(-c2cc3[nH]c(=O)n(-c4cncc5ccc(N6CCC(F)(F)C6)cc45)c(=O)c3s2)c1 [Example 414]	7.63	20.1		
CC(C)Cn1cc(-c2cccc(Cl)c2-c2ccc3c(=O)n(-c4cncc5ccccc45)c(=O)[nH]c3c2)c(C(F)(F)F)n1 [Example 201]		59	110	
O=c1[nH]c2cc(-c3cc(OC(F)(F)F)ccc3Cl)ccc2c(=O)n1-c1cncc2ccccc12 [Example 181]		438	1220	
Cn1cc(-c2cccc(Cl)c2-c2cc3[nH]c(=O)n(-c4cncc5ccccc45)c(=O)c3s2)c(C2CC2)n1 [Example 527]	3.22	1.45		
COc1cc(-c2cc3c(s2)c(=O)n(-c2cnccn2)c(=O)n3CCC#N)c(Cl)cc1F [Example 893]	22.1	136		
NC(=O)c1ccccc1-c1ccc2c(=O)n(-c3cncc4ccccc34)c(=O)[nH]c2c1 [Example 66, 2-(3-(isoquinolin-4-yl)-2,4-dioxo-1,2,3,4-tetrahydroquinazolin-7-yl)benzamide]		> 50000	2010	
Cn1nnc2cncc(-n3c(=O)c4sc(-c5cc(Cl)ccc5C#N)cc4n(CCC#N)c3=O)c21 [Example 886]	36.1	144		
COc1ccc(Cl)c(-c2cc3[nH]c(=O)n(-c4cncc5ccc(N6CC7C(C6)C7(F)F)cc45)c(=O)c3s2)c1 (centres unmarked) [Example 232]		34.9	17.6	
Cc1cncc(-n2c(=O)c3sc(-c4ccccc4Cl)cc3n(CCC#N)c2=O)n1 [Example 833]	16	49.7		
COc1ccc(Cl)c(-c2cc3[nH]c(=O)n(-c4cncc5c4cnn5CC(F)(F)F)c(=O)c3s2)c1 [Example 499]	1920	6950		
N#Cc1ccc(Cl)cc1-c1cc2[nH]c(=O)n(-c3cncc4ccccc34)c(=O)c2s1 [Example 685]	12	69.2		
COc1cnc(Cl)c(-c2cc3c(s2)c(=O)n(-c2cncc4cccc(F)c24)c(=O)n3CCC#N)c1 (single isomer, unassigned) [Example 1094, 3-(6-(2-chloro-5-methoxypyridin-3-yl)-3-(5-fluoroisoquinolin-4-yl)-2,4-dioxo-3,4-dihydrothieno[3,2-d]pyrimidin-1(2H)-yl)propanenitrile]	3.27			EC50 (SARS-CoV-2-NLuc; read-out: MPro EC50): 9.71 nM
O=C1C[C@@H](Nc2ccc3cncc(-n4c(=O)[nH]c5cc(-c6ccccc6Cl)sc5c4=O)c3c2)CN1 [Example 405]	12	2930		
